Key:
[1] = molecular target: His-Rac1 / GST-PBD (PAK Binding Domain) (Homo sapiens, UniProt P63000); assay: Rac Activation AlphaScreen Assay (Rac1 AS); assay type: biochemical; conditions: 500 nM GTPγS, 37° C., 1 hour; 'positive' = signal generated was higher than the positive control
Procedure: AlphaScreen® assays were performed in 96-well microplates in a final reaction volume of 60 μl. Recombinant His-Rac1, recombinant GST-PBD (PAK Binding Domain), donor and acceptor beads (PerkinElmer), and inhibitors were incubated in exchange buffer (20 mM Tris pH 7.5, 50 mM NaCl, 1 mM MgCl2, 1 mM EDTA, 500 nM GTPγS (guanosine 5′-[γ-thio]triphosphate)) at 37° C. Readings were performed on a Tecan M1000 pro microplate reader after 1 hour.

[2] = system: MCF-7 human breast cancer cell line; assay: Cell Viability Assay (MCF7), PrestoBlue; assay type: cell-based; conditions: MCF7, 72 h, MCF-7 cells, three days after drug treatment
Procedure: In order to determine a compound's effect on cell viability, PrestoBlue assays were performed as previously described by Kuhn et al. (2013) with modifications. MCF-7 human breast cancer and IGR-1 human melanoma cell lines were seeded into 96-well plates 24 hours prior to addition of drug. Cells were treated with 0 to 200 μM (11 concentrations) of compound solubilized in DMSO, adjusting the final concentration of DMSO to 1% in the well. Three days after drug treatment, cell viability was measured by adding PrestoBlue (Life Technologies Ltd.; cat. No. A13262) reagent directly to wells containing media/drug to reach a final concentration of 10%. PrestoBlue is a modified molecule of the common Alamar Blue probe used to determine viability based on the ability of a cell to metabolize a nonfluorescent compound (resazurin) to a florescent molecule (resorufin). Following a 1 hour incubation period, total well fluorescence was measured using the microplate reader M1000 pro (Tecan) with excitation 560-5 nm and emission 590-5 nm. […] The percentage of living cells was then computed by comparison with control wells. Kuhn, Jonas et al., Assay and Drug Development Technologies, March 2013, Label-Free Cytotoxicity Screening Assay by Digital Holographic Microscopy.

Rac1 protein = molecular target: T1, Rac1 protein (Homo sapiens, UniProt P63000); assay: Fluorescence Polarization Assay (Rac1 FP); assay type: binding; conditions: 125 nM his-tagged Rac1, 12.5 nM Bodipy-TR GTPγS, 30 minutes at 37° C.
T1 construct: purchased Cytoskeleton Inc. RC01
Procedure: Direct binding of Rac1 compound inhibitors to Rac1 protein was performed using fluorescence polarization (FP). Briefly, Rac1 inhibitors were initially dissolved in DMSO and then serial drug dilutions in exchange buffer (20 mM Tris pH 7.5, 50 mM NaCl, 1 mM MgCl, 1 mM EDTA) were prepared in a flat black 96-well half-area plate (Greiner). Recombinant his-tagged Rac1 protein (Cytoskeleton Inc. Cat. # RC01) was added to the inhibitors at a final concentration of 125 nM along with 12.5 nM Bodipy-TR GTPγS (Life Technologies Inc. Cat. # G35780) in exchange buffer and incubated for 30 minutes at 37° C. in exchange buffer. After 30 minutes of incubation. FP was measured on the M1000 Pro (Tecan) fluorescent plate reader with 590 nm±5 nm excitation and 625 nm±5 nm emission spectra settings.

[3] = system: BT474 breast cancer cells; assay: BT474 Four (4) Day Cell Viability Assay; assay type: cell-based; conditions: BT474, 4 days, 32661 0 μM, fulvestrant 0.0 nM
Procedure: BT474 breast cancer cells that are Estrogen Receptor Positive and HER2+ were grown in 5% cFBS. 5,000 cells were seeded into each well of a 96-well plate and treated with escalating doses of lapatinib, fulvestrant, and 32661.

FC(F)(F)c1ccc2c(SCCCCCOc3ccc(CN4CCOCC4)nc3)ccnc2c1 [Compound 0031778, 4-[(5-{[6-(morpholin-4-ylmethyl)pyridin-3-yl]oxy}pentyl)sulfanyl]-7-(trifluoromethyl)quinoline]
Rac1 AS IC50(uM) [1]: positive
IC50 [2]: 4.86 µM
IC50 (Rac1 protein): 1.24 µM

FC(F)(F)c1ccc2c(SCCCCCCCn3cc(CN4CCOCC4)nn3)ccnc2c1 [Compound 0032371, 4-({7-[4-(morpholin-4-ylmethyl)-1H-1,2,3-triazol-1-yl]heptyl}sulfanyl)-7-(trifluoromethyl) quinoline]
IC50 [1]: 62 µM
IC50 [2]: 11.3 µM
IC50 (Rac1 protein): 3.73 µM

COCCN(Cc1cn(CCCCCCSc2ccnc3cc(C(F)(F)F)ccc23)nn1)C(=O)OC(C)(C)C [Compound 0032621, tert-butyl N-(2-methoxyethyl)-N-{[1-(6-{[7-(trifluoromethyl)quinolin-4-yl]sulfanyl}hexyl)-1H-1,2,3-triazol-4-yl]methyl}carbamate]
Rac1 AS IC50(uM) [1]: positive
IC50 [2]: 9.34 µM
IC50 (Rac1 protein): 1.48 µM

FC(F)(F)c1ccc2c(SCCCCCCn3cncc3CN3CCOCC3)ccnc2c1 [Compound 0032662, 4-({6-[5-(morpholin-4-ylmethyl)-1H-imidazol-1-yl]hexyl}sulfanyl)-7-(trifluoromethyl) quinoline]
IC50 [1]: 16.6 µM
IC50 [2]: 19.1 µM
IC50 (Rac1 protein): 2.33 µM

FC(F)(F)c1ccc2c(SCc3cccc(Cn4cc(CN5CCOCC5)nn4)c3)ccnc2c1 [Compound 0032731, 4-[{(3-{[4-(morpholin-4-ylmethyl)-1H-1,2,3-triazol-1-yl]methyl}phenyl)methyl]sulfanyl)-7-(trifluoromethyl) quinoline]
IC50 [1]: 24.1 µM
IC50 [2]: 9.1 µM
IC50 (Rac1 protein): 5.16 µM

Fc1ccc2c(SCCCCCCn3cc(CN4CCOCC4)nn3)ccnc2c1 [Compound 0032833, 7-fluoro-4-{(6-[4-(morpholin-4-ylmethyl)-1H-1,2,3-triazol-1-yl]hexyl}sulfanyl) quinoline]
Rac1 AS IC50(uM) [1]: positive
IC50 [2]: 7.8 µM
IC50 (Rac1 protein): 4.32 µM

Cc1ccc(NCc2cn(CCCCCCSc3ccnc4cc(C(F)(F)F)ccc34)cn2)cc1 [Compound 0032880, 4-methyl-N-{[1-(6-{[7-(trifluoromethyl)quinolin-4-yl]sulfanyl)hexyl}-1H-imidazol-4-yl]methyl)aniline]
IC50 [1]: 3.2 µM
IC50 [2]: 6.3 µM
IC50 (Rac1 protein): 1 µM

COc1ccc(NCc2cn(CCCCCCSc3ccnc4cc(C(F)(F)F)ccc34)cn2)cc1 [Compound 0032881, 4-methoxy-N-{[1-(6-{[7-(trifluoromethyl)quinolin-4-yl]sulfanyl}hexyl)-1H-imidazol-4-yl]methyl}aniline]
IC50 [1]: 6 µM
IC50 [2]: 6.8 µM
IC50 (Rac1 protein): 0.249 µM

FC(F)(F)c1ccc2c(SCCCCCCn3cnc(CNc4ccccc4)c3)ccnc2c1 [Compound 0032886, N-{[1-(6-{[7-(trifluoromethyl)quinolin-4-yl]sulfanyl)hexyl}-1H-imidazol-4-yl]methyl} aniline]
IC50 [1]: 4.4 µM
IC50 [2]: 7.8 µM
IC50 (Rac1 protein): 2.04 µM

CN(Cc1cn(CCCCCCSc2ccnc3cc(C(F)(F)F)ccc23)cn1)c1ccccc1 [Compound 0032887, N-methyl-N-{[1-(6-{[7-(trifluoromethyl)quinolin-4-yl]sulfanyl)hexyl}-1H-imidazol-4-yl]methyl}aniline]
IC50 [1]: 4.7 µM
IC50 [2]: 11.8 µM
IC50 (Rac1 protein): 1.18 µM

O=C(NCc1cn(CCCCCCSc2ccnc3cc(C(F)(F)F)ccc23)nn1)C1CCCCC1 [Compound 0032896, N-{[1-(6-{[7-(trifluoromethyl)quinolin-4-yl]sulfanyl}hexyl)-1H-1,2,3-triazol-4-yl]methyl} cyclohexane-carboxamide]
Rac1 AS IC50(uM) [1]: positive
IC50 [2]: 13.8 µM
IC50 (Rac1 protein): 4.76 µM

FC(F)(F)c1ccc2c(SCCCCCCn3ccc(CN4CCOCC4)n3)ccnc2c1 [Compound 0032897, 4-({6-[3-(morpholin-4-ylmethyl)-1H-pyrazol-1-yl]hexyl}sulfanyl)-7-(trifluoromethyl) quinoline]
IC50 [1]: 35 µM
IC50 [2]: 11.6 µM
IC50 (Rac1 protein): 2.79 µM

COc1ccc(N2CCN(Cc3cn(CCCCCCSc4ccnc5cc(C(F)(F)F)ccc45)nn3)CC2)cc1 [Compound 0032956, 4-{[6-(4-{[4-(4-methoxyphenyl)piperazin-1-yl]methyl}-1H-1,2,3-triazol-1-yl)hexyl]sulfanyl}-7-(trifluoromethyl) quinoline]
IC50 [1]: 8.2 µM
IC50 [2]: 10.7 µM
IC50 (Rac1 protein): 1.41 µM

Fc1ccc2c(SCCCCCCn3cnc(CNc4ccccc4)c3)ccnc2c1 [Compound 0033042, N-{(1-(6-[(7-fluoroquinolin-4-yl)sulfanyl]hexyl}-1H-imidazol-4-yl}methyl] aniline]
IC50 [1]: 7.2 µM
IC50 [2]: 9 µM
IC50 (Rac1 protein): 2.35 µM

OC(c1ccccc1)c1cn(CCCCCCSc2ccnc3cc(C(F)(F)F)ccc23)cn1 (stereo not shown) [Compound 0033043, phenyl[1-(6-{[7-(trifluoromethyl)quinolin-4-yl]sulfanyl}hexyl)-1H-imidazol-4-yl]methanol]
IC50 [1]: 9.6 µM
IC50 [2]: 7.8 µM
IC50 (Rac1 protein): 100 µM

FC(F)(F)c1ccc2c(SCCCCCCNc3ccc(N4CCNCC4)cc3)ccnc2c1 [Compound 0033102, 4-(piperazin-1-yl)-N-(6-{[7-(trifluoromethyl)quinolin-4-yl]sulfanyl}hexyl)aniline]
IC50 [1]: 0.383 µM
IC50 [2]: 3.8 µM
IC50 (Rac1 protein): 9.66 µM

FC(F)(F)c1ccc2c(SCCCCCCNc3ccc(N4CCOCC4)cc3)ccnc2c1 [Compound 0033200, 4-(morpholin-4-yl)-N-(6-{[7-(trifluoromethyl)quinolin-4-yl]sulfanyl}hexyl)aniline]
IC50 [1]: 2.3 µM
IC50 [2]: 10.8 µM
IC50 (Rac1 protein): 0.71 µM

FC(F)(F)c1ccc2c(SCCCCCCNc3cccc(N4CCNCC4)c3)ccnc2c1 [Compound 0033235, 3-piperazin-1-yl-N-[6-[[7-(trifluoromethyl)-4-quinolyl]sulfanyl]hexyl]aniline]
IC50 [1]: 1.1 µM
IC50 [2]: 3.6 µM
IC50 (Rac1 protein): 4.81 µM

FC(F)(F)c1ccc2c(SCCCCCNc3ccc(N4CCNCC4)cc3)ccnc2c1 [Compound 0033240, 4-(piperazin-1-yl)-N-(5-{[7-(trifluoromethyl)quinolin-4-yl]sulfanyl}pentyl)aniline]
IC50 [1]: 0.98 µM
IC50 [2]: 3.8 µM
IC50 (Rac1 protein): 9.67 µM

NC1CCN(c2ccc(NCCCCCCSc3ccnc4cc(C(F)(F)F)ccc34)cc2)CC1 [Compound 0033278, 1-{4-[(6-{[7-(trifluoromethyl)quinolin-4-yl]sulfanyl}hexyl)amino]phenyl} piperidin-4-amine]
IC50 [1]: 1.1 µM
IC50 [2]: 7.6 µM
IC50 (Rac1 protein): 2.32 µM

O=C1CNCCN1c1ccc(NCCCCCCSc2ccnc3cc(C(F)(F)F)ccc23)cc1 [Compound 0033283, 1-{4-[(6-{[7-(trifluoromethyl)quinolin-4-yl]sulfanyl)hexyl}amino]phenyl} piperazin-2-one]
IC50 [1]: 6.3 µM
IC50 [2]: 5.6 µM
IC50 (Rac1 protein): 3.07 µM

CS(=O)(=O)CCNCc1ccc(-c2ccc3ncnc(Nc4ccc(OCc5cccc(F)c5)c(Cl)c4)c3c2)o1 [Lapatinib, lapatinib, reference compound]
cellular viability ([3]; lapatinib 6.9 nM): 99%
cellular viability ([3]; lapatinib 20.6 nM): 96%
cellular viability ([3]; lapatinib 61.7 nM): 80%
cellular viability ([3]; lapatinib 185.2 nM): 75%
cellular viability ([3]; lapatinib 555.6 nM): 77%
cellular viability ([3]; lapatinib 1666.7 nM): 68%
cellular viability ([3]; lapatinib 3333.0 nM): 60%
